# Measurements published in patent US20110144331A1, “Cinnoline Compounds for the Treatment of Anxiety, Cognitive and Mood Disorders” (AstraZeneca AB, priority 2005, published 2011).
# How the values were obtained:
# [1] = biological target: T1, human α1β2γ2 GABAA receptor (Homo sapiens, UniProt P14867+P18507); experiment: Two-electrode voltage-clamp in Xenopus oocytes, potentiation of GABA EC10 current, GABAA1; format: cell-based; details: percentage potentiation of GABA EC10 current divided by that of diazepam control
# T1 construct: expressed in transfected cells; host or cells: Xenopus laevis oocytes injected with capped cRNA
# T1 sequence (P14867 28-456): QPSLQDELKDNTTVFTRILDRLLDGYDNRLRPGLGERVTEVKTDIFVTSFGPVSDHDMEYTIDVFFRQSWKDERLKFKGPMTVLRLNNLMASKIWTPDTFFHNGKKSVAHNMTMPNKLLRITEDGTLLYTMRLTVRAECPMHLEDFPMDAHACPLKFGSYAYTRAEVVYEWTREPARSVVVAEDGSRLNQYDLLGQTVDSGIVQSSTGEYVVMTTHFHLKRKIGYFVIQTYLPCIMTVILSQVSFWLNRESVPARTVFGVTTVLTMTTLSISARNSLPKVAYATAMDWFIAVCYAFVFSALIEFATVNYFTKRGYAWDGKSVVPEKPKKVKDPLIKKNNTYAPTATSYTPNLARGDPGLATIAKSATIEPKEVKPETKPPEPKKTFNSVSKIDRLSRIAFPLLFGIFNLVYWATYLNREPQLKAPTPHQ
# T1 sequence (P47870 25-512 partner limits assumed): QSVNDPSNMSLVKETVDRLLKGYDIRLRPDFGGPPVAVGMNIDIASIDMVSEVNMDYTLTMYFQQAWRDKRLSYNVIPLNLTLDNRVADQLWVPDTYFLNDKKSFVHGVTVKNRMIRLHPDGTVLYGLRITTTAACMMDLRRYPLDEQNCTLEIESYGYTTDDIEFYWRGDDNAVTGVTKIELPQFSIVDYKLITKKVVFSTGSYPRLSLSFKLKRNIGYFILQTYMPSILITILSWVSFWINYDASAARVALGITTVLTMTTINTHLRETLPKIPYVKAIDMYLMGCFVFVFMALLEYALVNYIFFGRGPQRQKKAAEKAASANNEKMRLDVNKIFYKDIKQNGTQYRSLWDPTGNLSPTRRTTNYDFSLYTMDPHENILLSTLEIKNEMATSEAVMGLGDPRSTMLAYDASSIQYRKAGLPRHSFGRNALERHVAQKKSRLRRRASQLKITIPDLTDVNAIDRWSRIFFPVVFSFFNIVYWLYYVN
# T1 sequence (P18507 40-475): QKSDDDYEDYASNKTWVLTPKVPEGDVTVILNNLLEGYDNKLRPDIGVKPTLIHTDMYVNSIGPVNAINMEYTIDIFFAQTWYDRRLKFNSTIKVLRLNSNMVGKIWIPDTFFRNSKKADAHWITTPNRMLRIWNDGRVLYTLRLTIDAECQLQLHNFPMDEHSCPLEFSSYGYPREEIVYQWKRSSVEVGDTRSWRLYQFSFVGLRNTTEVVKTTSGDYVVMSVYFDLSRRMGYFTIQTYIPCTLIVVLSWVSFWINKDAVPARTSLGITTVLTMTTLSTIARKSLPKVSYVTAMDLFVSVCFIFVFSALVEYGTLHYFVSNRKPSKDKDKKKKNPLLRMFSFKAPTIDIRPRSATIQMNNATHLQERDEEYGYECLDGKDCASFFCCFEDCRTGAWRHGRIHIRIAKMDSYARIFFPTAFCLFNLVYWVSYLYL
# Procedure: (§1) GABAA receptors were heterologously expressed in Xenopus oocytes by injecting cRNA corresponding to human α1, α2, α3, α5, β2, β3 and γ2 subunits of the GABAA receptor genes. The specific subunit combinations (subtypes) were as follows: α1β2γ2, α2β3γ2, α3β3γ2, and α5β3γ2. The EC10 of GABA was approximated for each cell. Stability of GABA-mediated (EC10) current was established. Modulatory effect of test compound was determined and compared across subtypes. […] Thus, the assay can characterize modulatory effects and determine subtype selectivity of test compounds on major subtypes of GABAA receptors.
# (§2) Surgically removed ovarian lobes were teased out in OR2 solution (82 NaCl, 2.5 KCl, 5 HEPES, 1.5 NaH2PO4, 1 MgCl2, 0.1 EDTA, in mM, pH 7.4). The oocytes were defolliculated by incubation in 25 mL OR2 containing 0.2% collagenase 1A (SIGMA) two times for about 60 minutes on a platform shaker and stored in Leibovitz's L-15 medium. Oocytes were injected the following day in 0.5× Leibovitz's L-15 medium containing […] gentamycin, 10 units/ml penicillin, and […] streptomycin.
# (§3) Capped cRNAs from the linearized vectors containing human α1, β2 and γ2 subunits of the GABAA receptor genes were mixed in ratio of 1:1:30. Oocytes were injected with 25-50 nL of mixed RNA with an appx molar ratio for α1, β2, and γ2 as 1:1:10. Oocyte recordings were done 2-10 days after injection. The same methods apply to subtypes derived from α2β2γ2, α3β3γ2, and α5β3γ2, except for 1:1:1 ratio was used for α, β, and γ subunits.
# (§4) All measurements were done in a medium containing ND-96 (96 NaCl, 2 KCl, 1.8 CaCl2.2H2O, 1 MgCl2.6H2O, 5 HEPES, in mM, pH 7.5). Two-electrode voltage-clamp recording was carried out using OpusXpress amplifier (Axon Instruments, Foster City, Calif.), which allows simultaneous recording from 8 oocytes. Oocytes were impaled with two electrodes of 1-2 MΩ tip resistance when filled with 3M KCl. Recordings were begun when membrane potential became stable at potentials negative to −50-−60 mV. Membrane potential was held at −60 mV. […] The concentration of GABA corresponded to the EC10 value calculated for each oocyte. The modulator pulses started 30 s before the GABA pulse so as to allow preincubation with the modulator. A set of 3 pulses with just GABA without modulator was given prior to the modulator-containing pulses to define the baseline GABA response. Two oocytes per each experiment were dedicated to observe the effect of diazepam on GABA response to ensure the presence of γ2 subunit in the GABAA pentameric complex, which imparts diazepam sensitivity to the complex.
# (§5) Current amplitude (i) was measured from baseline to peak using Clampfit (Axon Inst., Foster City, Calif.). Potentiation was calculated as percent change from the baseline GABA current flux 100×(imod/icontrol)−1) where imod=current mediated by modulator+GABA and icontrol=current mediated by GABA alone. […] Similarly, a value of −50% potentiation means the presence of modulator caused a 50% decrease in the control current. Various other data shown here were fitted and plotted using GraphPad Prism (GraphPad Software, Inc. San Diego, Calif.). The percentage potentiation was converted to relative potentiation by dividing it with percentage potentiation value obtained from the same assay with diazepam as a control.
# [2] = biological target: T2, human α2β3γ2 GABAA receptor (Homo sapiens, UniProt P18507+P47869); experiment: Two-electrode voltage-clamp in Xenopus oocytes, potentiation of GABA EC10 current, GABAA2; format: cell-based; details: percentage potentiation of GABA EC10 current divided by that of diazepam control
# T2 construct: expressed in transfected cells; host or cells: Xenopus laevis oocytes injected with capped cRNA (α:β:γ 1:1:1)
# T2 sequence (P47869 29-451): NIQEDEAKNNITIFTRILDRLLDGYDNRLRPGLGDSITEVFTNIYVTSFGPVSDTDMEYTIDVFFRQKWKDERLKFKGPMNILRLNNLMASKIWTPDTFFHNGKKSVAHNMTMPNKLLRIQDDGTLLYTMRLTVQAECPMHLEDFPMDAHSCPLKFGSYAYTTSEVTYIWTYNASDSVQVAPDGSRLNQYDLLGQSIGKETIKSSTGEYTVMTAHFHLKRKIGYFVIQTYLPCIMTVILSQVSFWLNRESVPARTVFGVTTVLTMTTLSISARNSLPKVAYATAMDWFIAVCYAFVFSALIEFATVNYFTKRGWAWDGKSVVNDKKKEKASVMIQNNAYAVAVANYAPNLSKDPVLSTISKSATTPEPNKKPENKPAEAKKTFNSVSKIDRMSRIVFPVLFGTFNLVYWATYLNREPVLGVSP
# T2 sequence (P18507 40-475): as the sequence (P18507 40-475) above
# T2 sequence (P28472 26-473 partner): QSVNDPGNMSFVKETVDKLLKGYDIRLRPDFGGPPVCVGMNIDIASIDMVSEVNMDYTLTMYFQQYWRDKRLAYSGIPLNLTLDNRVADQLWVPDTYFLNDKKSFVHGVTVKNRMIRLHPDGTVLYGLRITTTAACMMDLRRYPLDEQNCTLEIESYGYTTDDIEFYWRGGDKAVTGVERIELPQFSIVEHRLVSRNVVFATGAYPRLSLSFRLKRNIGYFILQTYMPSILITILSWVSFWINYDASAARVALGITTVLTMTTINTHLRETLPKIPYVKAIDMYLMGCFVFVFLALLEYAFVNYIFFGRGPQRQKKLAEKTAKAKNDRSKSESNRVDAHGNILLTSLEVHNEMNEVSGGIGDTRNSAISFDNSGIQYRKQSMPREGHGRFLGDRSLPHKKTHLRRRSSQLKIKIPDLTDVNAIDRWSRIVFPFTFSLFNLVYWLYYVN
# Procedure: as §1, §2, §3, §4, §5
Structure (SMILES),Relative Potentiation for GABAA1 [1],Relative Potentiation for GABAA2 [2]
CCCNC(=O)c1nnc2c(-c3cc(Cl)ccc3OC)c(F)ccc2c1N,0.25,
CCCNC(=O)c1nnc2c(-c3ccccc3C(F)(F)F)cccc2c1N,0.12,0.063
COc1cccc(F)c1-c1cccc2c(N)c(C(=O)NC3CCC3)nnc12,0.0017,0.12
CCCNC(=O)c1nnc2c(-c3cc(OC)cc(OC)c3)c(F)ccc2c1N,0.38,
CCCNC(=O)c1nnc2c(-c3ccc(OC)c(OC)c3OC)c(F)ccc2c1N,0.51,
CCCNC(=O)c1nnc2c(-c3ccc(OC)cc3C(F)(F)F)c(F)ccc2c1N,0.28,
CCCNC(=O)c1nnc2c(-c3ccc(F)cc3OCC)c(F)ccc2c1N,0.27,
CCCNC(=O)c1nnc2c(-c3cc(Cl)ccc3Cl)c(F)ccc2c1N,0.21,
CCCNC(=O)c1nnc2c(-c3cc(C(F)(F)F)ccc3F)cccc2c1N,0.41,0.59
CCCNC(=O)c1nnc2c(-c3cncc(C(=O)N4CCC4)c3)cccc2c1N,−0.11,−0.033
CCCNC(=O)c1nnc2c(-c3ccc(OC)cc3C(F)(F)F)cccc2c1N,0.12,0.16
CCCNC(=O)c1nnc2c(-c3ccc(OC)cc3OC)cccc2c1N,0.18,0.15
CCCNC(=O)c1nnc2c(-c3cccnc3)cccc2c1N,−0.11,0.054
CCCNC(=O)c1nnc2c(-c3cnc(OC)nc3OC)c(Cl)ccc2c1N,0.19,0.29
CCCNC(=O)c1nnc2c(-c3ccc(OC)c(F)c3)c(F)ccc2c1N,0.1,0.16
CCCNC(=O)c1nnc2c(-c3cc(C)ccc3OC)c(Cl)ccc2c1N,0.47,
CCCCNC(=O)c1nnc2c(-c3cnc(OC)nc3OC)cccc2c1N,0.16,0.45
CCCNC(=O)c1nnc2c(-c3cccc(OC)c3F)cccc2c1N,0.045,0.26
CCCNC(=O)c1nnc2c(-c3cccc(C(=O)N4CCC4)c3)cccc2c1N,0.19,−0.0075
CCCNC(=O)c1nnc2c(-c3ccc(OC)c(OC)c3)cccc2c1N,0.33,0.28
CCCNC(=O)c1nnc2c(-c3ccc(C)nc3)cccc2c1N,−0.16,0.14
CCCNC(=O)c1nnc2c(-c3ccc(OC)cc3F)cccc2c1N,0,0.12
CCCNC(=O)c1nnc2c(-c3cncc(OC)c3)cccc2c1N,0.07,0.34
CCCNC(=O)c1nnc2c(-c3cccc(OC)c3)cccc2c1N,0.13,0.22
CCCNC(=O)c1nnc2c(-c3ccc(F)cc3OC)cccc2c1N,0.12,0.38

Structure (SMILES),Relative Potentiation for GABAA1 [1],Relative Potentiation for GABAA2 [2]
CCNC(=O)c1nnc2c(-c3cnccc3OC)cccc2c1N,−0.02,0.28
CCCNC(=O)c1nnc2c(-c3cc(OC)cc(OC)c3)cccc2c1N,0.28,0.57
CCCNC(=O)c1nnc2c(-c3cccc(N(C)C)c3)cccc2c1N,0.17,0.19
CCCNC(=O)c1nnc2c(-c3cc(F)ccc3C)cccc2c1N,0.02,0.22
CCCNC(=O)c1nnc2c(-c3ccc(OC)cc3OC)c(Cl)ccc2c1N,0.87,
CCCNC(=O)c1nnc2c(-c3cc(F)cc(F)c3OC)c(F)ccc2c1N,0.1,0.14
CCCNC(=O)c1nnc2c(-c3ccccc3)c(Cl)ccc2c1N,0.25,0.16
CCCNC(=O)c1nnc2c(-c3ccc(OC)c(OC)c3OC)cccc2c1N,0.47,0.33
CCCNC(=O)c1nnc2c(-c3cc(C)nn3C)cccc2c1N,0.23,0.18
CCCNC(=O)c1nnc2c(-c3cc(OC)ccc3C)cccc2c1N,0.1,0.22
CCCNC(=O)c1nnc2c(-c3nc(Br)ccc3OC)cccc2c1N,0.34,
CCCNC(=O)c1nnc2c(-c3cnn(C)c3)cccc2c1N,−0.16,0.16
CCCNC(=O)c1nnc2c(-c3ccc(Cl)cc3)c(F)ccc2c1N,0.02,0.19
CCCNC(=O)c1nnc2c(-c3ccc(OC)nc3)cccc2c1N,−0.08,0.16
CCCNC(=O)c1nnc2c(-c3cccc(S(C)(=O)=O)c3)cccc2c1N,0.34,0.26
CCCNC(=O)c1nnc2c(-c3cc(F)ccc3OC)cccc2c1N,0.026,0.4
CCNC(=O)c1nnc2c(-c3cc(C)ccc3OC)cccc2c1N,0.23,
CCCNC(=O)c1nnc2c(-c3cccc(F)c3OC)cccc2c1N,0.11,0.11
CCCNC(=O)c1nnc2c(-c3cc(C)ccc3C)c(Cl)ccc2c1N,0.24,0.22
CCCNC(=O)c1nnc2c(-c3cccc(Cl)c3)cccc2c1N,0.18,0.53
CCCCNC(=O)c1nnc2c(-c3cc(C)ccc3OC)cccc2c1N,0.32,
CCCNC(=O)c1nnc2c(-c3cc(OC)ccc3OC)c(Cl)ccc2c1N,0.32,
CCCNC(=O)c1nnc2c(-c3cc(Cl)cc(Cl)c3)c(F)ccc2c1N,0.36,
CCCNC(=O)c1nnc2c(-c3cc(C(=O)N4CCC4)ccc3OC)cccc2c1N,0.48,
